Experimental data as given in ChEMBL document CHEMBL5131391, “One-pot three-component synthesis of novel pyrazolo[3,4-b]pyridines as potent antileukemic agents” (Eur J Med Chem, 2022).

Assays:
Assay type in all cases: functional
CAKI-1 = assay: Antiproliferative activity against human CAKI-1 cells assessed as growth inhibition at 10 uM measured after 48 hrs by NCI protocol based SRB assay relative to control; conditions: read-out: GI
DU-145 = assay: Antiproliferative activity against human DU-145 cells assessed as growth inhibition at 10 uM measured after 48 hrs by NCI protocol based SRB assay relative to control; conditions: read-out: GI
MOLT-4 = assay: Antiproliferative activity against human MOLT-4 cells assessed as growth inhibition at 10 uM measured after 48 hrs by NCI protocol based SRB assay relative to control; conditions: read-out: GI
MV4-11 = assay: Antiproliferative activity against human MV4-11 cells assessed as reduction in cell viability incubated for 72 hrs by resazurin dye based assay; conditions: MV4-11, 72 h
OVCAR-3 = assay: Antiproliferative activity against human OVCAR-3 cells assessed as growth inhibition at 10 uM measured after 48 hrs by NCI protocol based SRB assay relative to control; conditions: read-out: GI
SNB-19 = assay: Antiproliferative activity against human SNB-19 cells assessed as growth inhibition at 10 uM measured after 48 hrs by NCI protocol based SRB assay relative to control; conditions: read-out: GI
SK-MEL-28 = assay: Antiproliferative activity against human SK-MEL-28 cells assessed as growth inhibition at 10 uM measured after 48 hrs by NCI protocol based SRB assay relative to control; conditions: read-out: GI
BT-549 = assay: Antiproliferative activity against human BT-549 cells assessed as growth inhibition at 10 uM measured after 48 hrs by NCI protocol based SRB assay relative to control; conditions: read-out: GI
MCF7 = assay: Antiproliferative activity against human MCF7 cells assessed as growth inhibition at 10 uM measured after 48 hrs by NCI protocol based SRB assay relative to control; conditions: read-out: GI
HOP-62 = assay: Antiproliferative activity against human HOP-62 cells assessed as growth inhibition at 10 uM measured after 48 hrs by NCI protocol based SRB assay relative to control; conditions: read-out: GI
OVCAR-4 = assay: Antiproliferative activity against human OVCAR-4 cells assessed as growth inhibition at 10 uM measured after 48 hrs by NCI protocol based SRB assay relative to control; conditions: read-out: GI
COLO 205 = assay: Antiproliferative activity against human COLO 205 cells assessed as growth inhibition at 10 uM measured after 48 hrs by NCI protocol based SRB assay relative to control; conditions: read-out: GI
UO-31 = assay: Antiproliferative activity against human UO-31 cells assessed as growth inhibition at 10 uM measured after 48 hrs by NCI protocol based SRB assay relative to control; conditions: read-out: GI
SF-295 = assay: Antiproliferative activity against human SF-295 cells assessed as growth inhibition at 10 uM measured after 48 hrs by NCI protocol based SRB assay relative to control; conditions: read-out: GI
MDA-MB-435 = assay: Antiproliferative activity against human MDA-MB-435 cells assessed as growth inhibition at 10 uM measured after 48 hrs by NCI protocol based SRB assay relative to control; conditions: read-out: GI
NCI-H460 = assay: Antiproliferative activity against human NCI-H460 cells assessed as growth inhibition at 10 uM measured after 48 hrs by NCI protocol based SRB assay relative to control; conditions: read-out: GI
MDA-MB-468 = assay: Antiproliferative activity against human MDA-MB-468 cells assessed as growth inhibition at 10 uM measured after 48 hrs by NCI protocol based SRB assay relative to control; conditions: read-out: GI
HL-60(TB) = assay: Antiproliferative activity against human HL-60(TB) cells assessed as growth inhibition at 10 uM measured after 48 hrs by NCI protocol based SRB assay relative to control; conditions: read-out: GI
SF-268 = assay: Antiproliferative activity against human SF-268 cells assessed as growth inhibition at 10 uM measured after 48 hrs by NCI protocol based SRB assay relative to control; conditions: read-out: GI
ACHN = assay: Antiproliferative activity against human ACHN cells assessed as growth inhibition at 10 uM measured after 48 hrs by NCI protocol based SRB assay relative to control; conditions: read-out: GI
RXF 393 = assay: Antiproliferative activity against human RXF 393 cells assessed as growth inhibition at 10 uM measured after 48 hrs by NCI protocol based SRB assay relative to control; conditions: read-out: GI
K562 = assay: Antiproliferative activity against human K562 cells assessed as growth inhibition at 10 uM measured after 48 hrs by NCI protocol based SRB assay relative to control; conditions: read-out: GI
RPMI-8226 = assay: Antiproliferative activity against human RPMI-8226 cells assessed as growth inhibition at 10 uM measured after 48 hrs by NCI protocol based SRB assay relative to control; conditions: read-out: GI
A498 = assay: Antiproliferative activity against human A498 cells assessed as growth inhibition at 10 uM measured after 48 hrs by NCI protocol based SRB assay relative to control; conditions: read-out: GI
Malme-3M = assay: Antiproliferative activity against human Malme-3M cells assessed as growth inhibition at 10 uM measured after 48 hrs by NCI protocol based SRB assay relative to control; conditions: read-out: GI
SF-539 = assay: Antiproliferative activity against human SF-539 cells assessed as growth inhibition at 10 uM measured after 48 hrs by NCI protocol based SRB assay relative to control; conditions: read-out: GI
SN12C = assay: Antiproliferative activity against human SN12C cells assessed as growth inhibition at 10 uM measured after 48 hrs by NCI protocol based SRB assay relative to control; conditions: read-out: GI
MDA-MB-231 = assay: Antiproliferative activity against human MDA-MB-231 cells assessed as growth inhibition at 10 uM measured after 48 hrs by NCI protocol based SRB assay relative to control; conditions: read-out: GI
HCT-116 = assay: Antiproliferative activity against human HCT-116 cells assessed as growth inhibition at 10 uM measured after 48 hrs by NCI protocol based SRB assay relative to control; conditions: read-out: GI
UACC-62 = assay: Antiproliferative activity against human UACC-62 cells assessed as growth inhibition at 10 uM measured after 48 hrs by NCI protocol based SRB assay relative to control; conditions: read-out: GI
SK-MEL-5 = assay: Antiproliferative activity against human SK-MEL-5 cells assessed as growth inhibition at 10 uM measured after 48 hrs by NCI protocol based SRB assay relative to control; conditions: read-out: GI
786-0 = assay: Antiproliferative activity against human 786-0 cells assessed as growth inhibition at 10 uM measured after 48 hrs by NCI protocol based SRB assay relative to control; conditions: read-out: GI
A549 = assay: Antiproliferative activity against human A549 cells assessed as growth inhibition at 10 uM measured after 48 hrs by NCI protocol based SRB assay relative to control; conditions: read-out: GI
NCI-H522 = assay: Antiproliferative activity against human NCI-H522 cells assessed as growth inhibition at 10 uM measured after 48 hrs by NCI protocol based SRB assay relative to control; conditions: read-out: GI
KM12 = assay: Antiproliferative activity against human KM12 cells assessed as growth inhibition at 10 uM measured after 48 hrs by NCI protocol based SRB assay relative to control; conditions: read-out: GI
UACC-257 = assay: Antiproliferative activity against human UACC-257 cells assessed as growth inhibition at 10 uM measured after 48 hrs by NCI protocol based SRB assay relative to control; conditions: read-out: GI

Compound | inhibition of growth at 10 µM (CAKI-1) [%] | inhibition of growth at 10 µM (DU-145) [%] | IC50 (MV4-11) [µM] | inhibition of growth at 10 µM (OVCAR-3) [%] | inhibition of growth at 10 µM (SK-MEL-28) [%] | inhibition of growth at 10 µM (MCF7) [%] | inhibition of growth at 10 µM (HOP-62) [%] | inhibition of growth at 10 µM (OVCAR-4) [%] | inhibition of growth at 10 µM (COLO 205) [%] | inhibition of growth at 10 µM (MDA-MB-435) [%] | inhibition of growth at 10 µM (NCI-H460) [%] | inhibition of growth at 10 µM (SF-268) [%] | inhibition of growth at 10 µM (ACHN) [%] | inhibition of growth at 10 µM (RPMI-8226) [%] | inhibition of growth at 10 µM (Malme-3M) [%] | inhibition of growth at 10 µM (SF-539) [%] | inhibition of growth at 10 µM (SN12C) [%] | inhibition of growth at 10 µM (MDA-MB-231) [%] | inhibition of growth at 10 µM (HCT-116) [%] | inhibition of growth at 10 µM (UACC-62) [%] | other results
Cc1ccc(-c2nc3c(c(-c4ccccc4)nn3-c3ccccc3)c(-c3ccc(O)cc3)c2C#N)cc1 | 50 | 40 | 3.3 | 36 | 33 | 74 | 60 | 18 | 30 | 36 | 73 | 40 | 33 | 79 | 25 | 85 | 47 | 55 | 58 | 37 | inhibition of growth at 10 µM (MOLT-4): 60%; inhibition of growth at 10 µM (SNB-19): 31%; inhibition of growth at 10 µM (BT-549): 24%; inhibition of growth at 10 µM (UO-31): 61%; inhibition of growth at 10 µM (SF-295): 120%; inhibition of growth at 10 µM (MDA-MB-468): 48%; inhibition of growth at 10 µM (HL-60(TB)): 68%; inhibition of growth at 10 µM (RXF 393): 110%; inhibition of growth at 10 µM (K562): 78%; inhibition of growth at 10 µM (A498): 56%; inhibition of growth at 10 µM (SK-MEL-5): 23%; inhibition of growth at 10 µM (786-0): 82%; inhibition of growth at 10 µM (A549): 48%; inhibition of growth at 10 µM (NCI-H522): 31%; inhibition of growth at 10 µM (KM12): 45%
N#Cc1c(-c2ccco2)nc2c(c(-c3ccccc3)nn2-c2ccccc2)c1-c1ccc(O)cc1 | 42 | 25 | 13.8 | 14 | 24 | 53 | 149 | 23 | 97 | 38 | 51 | 33 | 28 | 45 | 66 | 18 | 18 | 18 | 64 | 11 | inhibition of growth at 10 µM (MOLT-4): 91%; inhibition of growth at 10 µM (BT-549): 36%; inhibition of growth at 10 µM (SF-295): 34%; inhibition of growth at 10 µM (UACC-257): 40%; inhibition of growth at 10 µM (HL-60(TB)): 78%; inhibition of growth at 10 µM (K562): 85%; inhibition of growth at 10 µM (SK-MEL-5): 13%; inhibition of growth at 10 µM (786-0): 41%; inhibition of growth at 10 µM (A549): 54%; inhibition of growth at 10 µM (NCI-H522): 81%; inhibition of growth at 10 µM (KM12): 58%
COc1cc(-c2c(C#N)c(-c3ccccc3)nc3c2c(-c2ccccc2)nn3-c2ccccc2)ccc1O | 37 | 25 | > 50 | 23 | 19 | 53 | 15 | 34 | 23 | 32 | 38 | 27 | 13 | 40 | 43 | 18 | 32 | 28 | 45 | 12 | inhibition of growth at 10 µM (SNB-19): 24%; inhibition of growth at 10 µM (UO-31): 32%; inhibition of growth at 10 µM (MDA-MB-468): 38%; inhibition of growth at 10 µM (RXF 393): 42%; inhibition of growth at 10 µM (SK-MEL-5): 21%; inhibition of growth at 10 µM (786-0): 24%; inhibition of growth at 10 µM (A549): 48%; inhibition of growth at 10 µM (NCI-H522): 47%; inhibition of growth at 10 µM (KM12): 35%
N#Cc1c(-c2ccccc2)nc2c(c(-c3ccccc3)nn2-c2ccccc2)c1-c1ccc(O)cc1 | 48 | 51 | 26.1 | 46 | 51 | 86 | 75 | 28 | 59 | 49 | 91 | 45 | 58 | 87 | 57 | 77 | 39 | 77 | 66 | 39 | inhibition of growth at 10 µM (SNB-19): 61%; inhibition of growth at 10 µM (BT-549): 41%; inhibition of growth at 10 µM (UO-31): 73%; inhibition of growth at 10 µM (SF-295): 143%; inhibition of growth at 10 µM (UACC-257): 29%; inhibition of growth at 10 µM (MDA-MB-468): 62%; inhibition of growth at 10 µM (RXF 393): 117%; inhibition of growth at 10 µM (A498): 101%; inhibition of growth at 10 µM (SK-MEL-5): 42%; inhibition of growth at 10 µM (786-0): 97%; inhibition of growth at 10 µM (A549): 59%; inhibition of growth at 10 µM (NCI-H522): 99%; inhibition of growth at 10 µM (KM12): 53%
N#Cc1c(-c2ccc(Cl)cc2)nc2c(c(-c3ccccc3)nn2-c2ccccc2)c1-c1ccc(O)cc1 | 60 | 50 | 25.1 | 52 | 44 | 81 | 51 | 36 | 48 | 52 | 75 | 54 | 44 | 83 | 39 | 89 | 118 | 64 | 86 | 47 | inhibition of growth at 10 µM (MOLT-4): 76%; inhibition of growth at 10 µM (SNB-19): 35%; inhibition of growth at 10 µM (BT-549): 38%; inhibition of growth at 10 µM (UO-31): 70%; inhibition of growth at 10 µM (SF-295): 99%; inhibition of growth at 10 µM (UACC-257): 15%; inhibition of growth at 10 µM (MDA-MB-468): 69%; inhibition of growth at 10 µM (HL-60(TB)): 68%; inhibition of growth at 10 µM (RXF 393): 127%; inhibition of growth at 10 µM (K562): 92%; inhibition of growth at 10 µM (A498): 21%; inhibition of growth at 10 µM (SK-MEL-5): 44%; inhibition of growth at 10 µM (786-0): 83%; inhibition of growth at 10 µM (A549): 59%; inhibition of growth at 10 µM (NCI-H522): 45%; inhibition of growth at 10 µM (KM12): 59%
